As a reminder, the IC50 is the concentration at which inhibition is half-maximal. By AUC(0-t) is commonly meant the area under the concentration-time curve up to a stated or last time point. The low end stands for less exposure, the high end for more exposure. By half-life is commonly meant how long it takes for the measured level to halve. Lower therefore signals rapid decline. Broadly, the ΔTm is the shift of the melting midpoint relative to a reference. One may read the solubility as the dissolved amount per volume that the medium holds. As usually defined, the logP is a log measure of how a compound divides between an organic and an aqueous phase.

The values that follow come from patent US11142524B2, “Substituted-3H-imidazo[4,5-c]pyridine and 1H-pyrrolo[2,3-c]pyridine series of novel Ectonucleotide Pyrophosphatase/Phosphodiesterase-1 (ENPP1) and stimulator for interferon genes (STING) modulators as cancer immunotherapeutics” (Stingray Therapeutics, Inc., priority 2018, dated 2021).

Data set [1] addresses T1, ENPP1 protein (Homo sapiens (Human), UniProt P22413). Put plainly: ENPP1 enzymatic assay with TMP substrate (FIG. 8). It counts as biochemical. Conditions: 5.0 ng ENPP1, 150 μM TMP substrate. How it is done:
FIG. 8 depicts results of a similar experiment. 5.0 ng of ENPP1 protein exposed to increasing doses of inhibitor (compound 78 or compound 107-02) for 10 minutes in solution, followed by the addition of 150 μM of TMP substrate. The assay was then incubated for 20 minutes and then read at 405 nm on the envision plate reader.
Target sequence in this assay (P22413 whole entry, looked up): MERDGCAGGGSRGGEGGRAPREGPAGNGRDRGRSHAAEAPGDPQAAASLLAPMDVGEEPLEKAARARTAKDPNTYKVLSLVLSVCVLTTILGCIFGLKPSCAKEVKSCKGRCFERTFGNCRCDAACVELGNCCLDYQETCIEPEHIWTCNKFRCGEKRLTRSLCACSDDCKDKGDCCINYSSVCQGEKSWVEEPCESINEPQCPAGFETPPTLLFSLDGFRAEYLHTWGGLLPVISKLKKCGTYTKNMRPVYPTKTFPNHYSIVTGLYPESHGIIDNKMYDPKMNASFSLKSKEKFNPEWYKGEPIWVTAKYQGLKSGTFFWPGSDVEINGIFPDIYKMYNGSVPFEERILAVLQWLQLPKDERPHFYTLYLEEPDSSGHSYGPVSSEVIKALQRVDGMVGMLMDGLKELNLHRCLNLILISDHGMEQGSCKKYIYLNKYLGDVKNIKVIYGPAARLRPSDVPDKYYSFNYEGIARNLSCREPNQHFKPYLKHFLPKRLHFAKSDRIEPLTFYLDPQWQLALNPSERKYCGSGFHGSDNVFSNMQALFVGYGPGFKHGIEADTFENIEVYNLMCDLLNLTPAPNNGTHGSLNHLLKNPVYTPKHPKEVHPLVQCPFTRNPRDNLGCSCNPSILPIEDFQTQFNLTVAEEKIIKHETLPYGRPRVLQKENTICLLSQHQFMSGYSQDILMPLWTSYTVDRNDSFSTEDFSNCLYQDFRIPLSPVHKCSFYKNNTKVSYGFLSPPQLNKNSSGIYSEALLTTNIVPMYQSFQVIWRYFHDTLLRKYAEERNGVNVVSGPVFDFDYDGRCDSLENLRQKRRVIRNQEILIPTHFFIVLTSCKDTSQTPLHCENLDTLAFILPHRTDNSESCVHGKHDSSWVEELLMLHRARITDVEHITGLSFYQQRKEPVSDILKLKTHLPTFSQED

The next data set relates to Saos-2 Cells. Put plainly: ENPP1 Mineralization Assay. It counts as cell-based. To be noted: FIG. 9, mineralization components for 3 days. On the procedure: Saos-2 Cells (ATCC CAT #HTB-85). Culture Medium. 24-well Tissue Culture Plate. Ascorbic Acid, 5 mg/mL (100×). β-Glycerophosphate, 1M (100×). Phosphate Buffered Saline. Alizarin Red, 40 mM pH 4.2. 70% Ethanol. Dye Extraction Reagent, 10% Methanol+10% Acetic Acid
Saos-2 cells were plated at a density of 1.5×10^6 cells/well and allowed to grow to 100% confluency over the following 1-2 days. Once completely confluent, the media was replaced with fresh media supplemented with 1× ascorbic acid, 1× β-glycerophosphate, and varying concentrations of ENPP1 inhibitor (if applicable). The addition of the mineralization components was considered Day 1. On Day 3, the media was gently aspirated with no wash followed by the addition of fresh media, mineralization components, and ENPP1 inhibitor (if applicable). On day 5, the media was gently aspirated and the cells were washed twice with PBS. The cells were then fixed with ice cold 70% ethanol for 1 hour at 4° C. Cells were washed once with PBS and stained with Alizarin Red for 30 minutes at room temperature with gentle rotation. Stained cells were washed three times with water for 10 minutes at room temperature with gentle rotation. After imaging cells, dye extraction reagent was added to each well and incubated for 30 minutes at room temperature. Alizarin red was quantified by measuring absorbance at a wavelength of 405 nm using the Envision.
FIG. 9 depicts a picture of results of a similar SAOS-2 mineralization assay. SAOS-2 cell were cultured in the presence and absence of ENPP1 inhibitor (compound 78, 107-02 or 108) and exposed to mineralization components for 3 days.

Data set [2] concerns the target T2, Recombinant Human ENPP-1 Protein (purified in-house) (Homo sapiens (Human), UniProt P22413). Briefly: ENPP1 Assay (ATP), Example 2. It counts as biochemical. To be noted: Table 5, ATP substrate; read-out: ENPP1 (IC50 μM) ATP. On the procedure:
Assay Buffer: 1 mM CaCl2, 0.2 mM ZnCl2, 50 mM Tris, pH 9.0. Substrate: 100 μM Adenosine 5′-triphosphate disodium salt hydrate (Promega: V703A)—Assay Conc.: 10 μM. Enzyme: 1 ng/μL Recombinant Human ENPP-1 Protein (purified in-house)—Assay Conc.: 5 ng/well of DMSO in 96-well white assay plates. Cell Titer Glo (Promega, cat #G7572).
A ten point serial dilution of drugs was prepared in 10× in assay buffer with the final assay concentrations starting at 10 μM, 3 μM, 1 μM, 0.3 μM . . . 0 μM. A dilution of DMSO was included as a control. The assay plate was set up as follows with each well in duplicate: 75 μL assay buffer+10 μL ENPP1 inhibitor or DMSO Dilutions+10 μL Substrate+5 μL Enzyme (5 ng). Both the enzyme and substrate were added to opposite sides of the well to ensure that there was no interaction until all wells had both components. The plate was then centrifuged gently for 10 seconds, followed by incubation at RT for 20 minutes. To detect levels of ATP, Cell Titer Glo was added 1:1 to each well and incubated for 10 minutes. The reaction was quantified by measuring luminescence using the Envision Plate Reader.

Data set [3] relates to IRF-3 reporter in THP1 WT and STING knockout cells. Put plainly: THP1 IRF-3 Reporter Assay. The data set is classed as cell-based. Conditions: 10 μM, primed with 2′3′cGAMP, 24 hours (FIG. 10) or 72 hours (FIG. 11). How it is done: FIGS. 10 and 11 depict results of a THP1 IRF-3 Reporter Assay. THP1 WT and STING knockout cells were primed with 2′3′cGAMP and treated with 10 μM ENPP1 inhibitors for 24 hours (FIG. 10) or 72 hours (FIG. 11). Media collected to determine induction of IRF-3 reporter using luminescence reagent QuantiLuc.

The next data set in a line: Mouse PK Profile. The data set is classed as in vivo.
In the next data set the test system is ENPP. Put plainly: Selectivity.
For data set [4], the target named is T1, ENPP1 protein. Put plainly: ENPP1 Thermal Shift Assay (Example 1). The data set is classed as binding. On the procedure: Assay Buffer (1 mM CaCl2, 0.2 mM ZnCl2, 50 mM Tris, pH 9.0) 5000×SYPRO Orange (ThermoFisher cat #S6651) 384-well PCR Plates
Each drug was prepared as a 10× solution in the assay buffer and SYPRO Orange was diluted to 10× concentration in water. Wells were set up in duplicate in a 384-well PCR plate as follows: 14 μL assay buffer, 2 μL ENPP1 Inhibitor or DMSO, 2 μL (0.5 μg) ENPP1 protein. Each well was mixed and incubated on ice for 5 minutes. Post incubation, 2 μL of SYPRO Orange was mixed into each well and followed by a gentle centrifugation. The protein melt reaction was run using ViiA7 software with temperatures beginning at 25° C. and increasing by 0.05° C./s to the maximum temperature of 99° C.
In a 384-well plate, 1.0 μg of ENPP1 protein incubated with 100 μM of the corresponding drug for 5 minutes. Each well exposed to increasing temperatures to determine an unfolding temperature of the protein.
Target sequence in this assay (P22413 whole entry, looked up, change not shown): as the sequence (P22413 whole entry, looked up) above

Data set [5] in a line: Physicochemical profile of 107-02 (PSA, Log P, Log S, solubility).
The target in data set [6] is T2, Recombinant Human ENPP-1 Protein (purified in-house). Put plainly: ENPP1 Assay (TMP), Example 2. It counts as biochemical. To be noted: Table 5, TMP substrate; read-out: ENPP1 (IC50 μM) TMP. On the procedure: Enzyme: 1 ng/μL Recombinant Human ENPP-1 Protein (purified in-house)—Assay Conc.: 5 ng/well of DMSO in 96-well clear assay plates.
A ten point serial dilution of drugs was prepared in 10× in assay buffer with the final assay concentrations starting at 10 μM, 3 μM, 1 μM, 0.3 μM . . . 0 μM. A dilution of DMSO was included as a control. The assay plate was set up as follows with each well in duplicate: 75 μL assay buffer+10 μL ENPP1 inhibitor or DMSO Dilutions+10 μL Substrate+5 μL Enzyme (5 ng). Both the enzyme and substrate were added to opposite sides of the well to ensure that there was no interaction until all wells had both components. The plate was then centrifuged gently for 10 seconds, followed by an incubation at 37° C. for 45 minutes. The reaction was quantified by measuring absorbance at 405 nm using the Envision Plate Reader.

Another data set deals with KPC mouse model of PDAC. Briefly: Tumor growth in KPC mouse model of PDAC. The data set is classed as in vivo. To be noted: once daily via IP at 20 mg/kg, FIG. 15B. An excerpt:
FIG. 15A a pharmacokinetic (PK) plasma concentration chart for compound 107-02. FIG. 15B is a tumor growth inhibition curve for compound 107-02 following in vivo administration. […] FIGS. 15C and 15D are flowcytometric charts of excised tumors following administration of compound 107-02. At the end of the study, tumors were excised and analyzed for T-cells and tumor-associated macrophages using flow cytometry. *p<0.05.

For the next data set, the system named is Caco-2. Put plainly: Caco-2 permeability. It counts as in vitro ADME.
The next data set addresses PgP (Homo sapiens (Human), UniProt P08183). Put plainly: PgP Inhibition. It counts as in vitro ADME.

T2 sequence (P22413 whole entry, looked up): as above
Sequence of PgP (P08183 whole entry): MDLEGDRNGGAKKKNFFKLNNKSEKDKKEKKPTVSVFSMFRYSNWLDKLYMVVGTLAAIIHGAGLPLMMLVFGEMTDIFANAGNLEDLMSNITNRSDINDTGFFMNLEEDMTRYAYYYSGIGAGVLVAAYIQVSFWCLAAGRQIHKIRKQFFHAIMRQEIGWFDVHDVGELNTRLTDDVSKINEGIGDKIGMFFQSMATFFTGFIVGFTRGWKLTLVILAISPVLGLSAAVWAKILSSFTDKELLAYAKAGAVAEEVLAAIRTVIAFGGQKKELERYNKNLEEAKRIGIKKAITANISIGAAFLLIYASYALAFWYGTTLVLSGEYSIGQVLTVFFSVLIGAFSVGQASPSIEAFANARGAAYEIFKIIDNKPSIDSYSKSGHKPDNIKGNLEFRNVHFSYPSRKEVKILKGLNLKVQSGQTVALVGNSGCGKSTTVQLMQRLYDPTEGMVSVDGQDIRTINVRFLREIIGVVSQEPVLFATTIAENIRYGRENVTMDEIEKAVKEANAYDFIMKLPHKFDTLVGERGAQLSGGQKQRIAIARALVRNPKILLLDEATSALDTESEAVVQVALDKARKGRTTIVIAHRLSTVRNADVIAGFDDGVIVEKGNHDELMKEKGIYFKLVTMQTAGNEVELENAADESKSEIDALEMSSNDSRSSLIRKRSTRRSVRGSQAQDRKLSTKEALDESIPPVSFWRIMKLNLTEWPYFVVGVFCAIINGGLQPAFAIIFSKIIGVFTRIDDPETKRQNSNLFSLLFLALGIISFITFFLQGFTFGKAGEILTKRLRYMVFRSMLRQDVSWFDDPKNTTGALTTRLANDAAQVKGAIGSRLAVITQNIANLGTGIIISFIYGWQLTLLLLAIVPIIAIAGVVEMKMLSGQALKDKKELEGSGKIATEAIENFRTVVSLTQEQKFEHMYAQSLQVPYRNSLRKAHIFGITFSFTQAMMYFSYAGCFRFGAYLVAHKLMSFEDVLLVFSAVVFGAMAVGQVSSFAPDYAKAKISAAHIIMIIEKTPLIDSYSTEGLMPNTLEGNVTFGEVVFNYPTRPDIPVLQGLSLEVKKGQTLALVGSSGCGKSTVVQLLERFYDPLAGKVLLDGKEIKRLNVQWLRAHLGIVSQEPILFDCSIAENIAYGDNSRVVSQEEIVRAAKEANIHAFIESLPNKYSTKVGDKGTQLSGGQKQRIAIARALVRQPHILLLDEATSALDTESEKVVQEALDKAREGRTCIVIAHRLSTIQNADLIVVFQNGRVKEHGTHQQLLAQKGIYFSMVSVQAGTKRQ

With `COc1ccc(NC(=O)CSc2nc3c(C)c(C#N)ncc3[nH]2)cc1OP(=O)(O)O` [Compound 107-02, 5-(2-((6-Cyano-7-methyl-3H-imidazo[4,5-c]pyridin-2-yl)thio)acetamido)-2-methoxyphenyl dihydrogen phosphate], the enzymatic activity result at ENPP1 protein [1] is “significant decrease”. The total mineralization entry with Saos-2 Cells was “significant decrease”. Moreover, in data set [2], the IC50 was determined as 0.211 µM. In data set [3], the IRF-3 response result is “significant increase”. The “Mouse PK Profile CO” value in “Mouse PK Profile” was found to be 2840.69 ng/mL. In “Mouse PK Profile” (plasma), the AUC(0-t) was determined as 1640 ng·h/mL and the half-life was 1.83 h. For the same compound, the AUC(0-inf) in “Mouse PK Profile” (plasma, read-out: AUCINF obs) was determined as 1650 ng·h/mL. The clearance in the data set “Mouse PK Profile” (plasma, read-out: CL obs) came out at 22.1 mL/min/kg. In addition, the Selectivity entry with ENPP is recorded as “Highly selective ENPPi”. Moreover, the “Tm (° C.)” value on ENPP1 protein [4] (Table 2, FIG. 7, 100 μM drug, 1.0 μg ENPP1, NT 60.05) amounted to 63.89 °C. Moreover, the ΔTm at 100 µM at ENPP1 protein [4] (read-out: ΔTm (° C.)) is 3.84 °C. In addition, in data set [5], the solubility was found to be 640 µg/mL. This compound returned a logP in [5] (pH 7.4) of 0.009. Further, the IC50 in data set [6] turned out to be 0.742 µM. The “tumor growth of KPC mouse model of PDAC” value in the data set with KPC mouse model of PDAC was “inhibits tumor growth”. This compound also had a Caco2 in the data set on Caco-2 (first entry (Caco2)) of −5.28. Besides, in the data set on Caco-2 (second entry (Caco-2)), the Caco-2 was −4.867. For the same compound, at PgP, the “PgP Inhibition” value is “Negative”.
